Key:
E. coli MG1655 [1] = type: cell-based, Escherichia coli
E. coli MG1655 [2] = type: cell-based, Escherichia coli; remark: listed apart in the source
HL-60 cells = experiment: HL-60 responses to selected compounds at a range of concentrations; type: cell-based, human
Method: In this Example, methods for testing unattached cells for their ability to use various concentrations of selected carbon sources are described. The carbon sources used in this Example were identified by the methods disclosed in Example 27. Similarly, HL-60 cells were cultured as described in Example 27.
After washing, HL-60 cells were resuspended in DME-R. An aliquot of the cell suspension was counted by trypan blue exclusion and the cell density was adjusted to 6.67×10^5/mL. Fifty μL of DME-R were added to each well of the appropriate number of half area, 96-well plates, followed by 23 μL of the appropriate dilution of each test energy source. Stocks of 133 mM of each test chemical were prepared in tissue culture grade water, sterile filtered, and dilutions were prepared in a master plate so that, upon dilution in a total volume of 150 μL, the final concentrations would be 0.033 to 20 mM. Negative control wells received 23 μL of tissue culture grade water. The cells were plated at a volume of 75 μL/well, giving a final cell density of 5×10^4/well. For each plate containing energy sources and cells, a second, control plate containing only energy sources was prepared. Plates were incubated at 5% CO2, 90-100% humidity, and 37° C. for 24 hours prior to addition of the MTS/MPMS colorometric reagent (7.5 μL/well). The color formed in each well after an additional 24 hour incubation period, was measured on a plate reader at 490 nm with a reference wavelength of 650 nm. OD values from the control plate were subtracted from the OD values obtained with cells prior to normalizing the data to % negative control (cells without added energy source).

HepG2 cells = HepG2 cells on flat bottom plastic wells, energy sources at a range of concentrations; type: cell-based, human; conditions: Homo sapiens, HepG2, 72 h, read-out: HepG2 Cells Responses After 72 hours in Culture and a 4 hour Color Development Period
Method: In this Example, methods for testing adherent cells for their ability to use multiple carbon sources are described. The human hepatocellular carcinoma cell line known as HepG2 (Knowles et al., Science, 209:497-499 [1980]) was chosen for this experiment. However, this application is not intended to be limited to the use of HepG2 cells, hepatocytes, carcinoma cells or even human cells.
HepG2 cells were grown in Falcon tissue culture flasks with vented tops. The culture medium used was Minimal Essential medium (MEM, Invitrogen 11095) with 1 g/L glucose, 2 mM L-glutamine, 2.2 g/L sodium bicarbonate, 10 mg/L phenol red, and supplemented with 0.1 mM Nonessential Amino Acids, 1 mM sodium pyruvate, 50 U/mL penicillin, 50 μg/mL streptomycin, and 10% (v/v) heat inactivated fetal bovine serum (HI FBS, Invitrogen 16140). The cells were seeded at 2×10^4/cm^2 and used 3 days after initiation of culture. During all incubations, the cells were kept in an atmosphere of 5% CO2, 90-100% humidity, and 37° C. Cells were harvested by trypsinization for 3 minutes in 0.25% trypsin-1 mM EDTA and resuspended in an equal volume of culture medium. A viable cell count was obtained by trypan blue exclusion and an appropriate volume of the cell suspension (to have 33% more viable cells than was sufficient for the experiment) was placed in a polypropylene centrifuge tube. Cells were pelleted by centrifugation at 350×g for 10 minutes at room temperature, resuspended in Dulbecco's Phosphate Buffered Saline (D-PBS, Invitrogen 14040) and centrifuged a second time. Cells were then resuspended to two-thirds the final volume needed in Dulbecco' ? s Modified Eagle's Medium (DME, Sigma D5030) containing 10% HI FBS and penicillin-streptomycin but without glucose, L-glutamine, sodium pyruvate, and phenol red. An aliquot was counted by trypan blue exclusion and the cell density was adjusted to 1.28×10^5/mL. Cells were plated in 100 μL/well in wells of standard, 96-well plates (4×10^4 cells/cm^2) and allowed to adhere overnight prior to addition of test chemicals.
For assay, the culture medium was aspirated, the wells were washed once with D-PBS and 170 μL of DME were added to each well, followed by 30 μL of the appropriate dilution of each test energy source. Stocks of 133 mM of each test chemical were prepared in tissue culture grade water, sterile filtered, and dilutions were prepared in a master plate so that, upon dilution into a regular 96-well MICROPLATE a total well volume of 200 μL, the final concentrations would be 0.033 to 20 mM. Negative control wells received 30 μL of tissue culture grade water. For each plate containing energy sources and cells, a second, control plate containing only energy sources was prepared. Plates were incubated at 5% CO2, 90-100% humidity, and 37° C. for 48 to 72 hours prior to addition of the MTS/PMS colorometric reagent (10 μL/well). The color formed in each well 4-24 hours after addition of the calorimetric reagent, was measured with a plate reader at 490 nm with a reference wavelength of 650 nm. OD values from the control plate were subtracted from the OD values obtained with cells prior to normalizing the data to % negative control (cells without added energy source).

[3] = tested on: Undifferentiated HL-60 cells; experiment: Energy use by undifferentiated HL-60 cells; type: cell-based, human; conditions: Homo sapiens, HL-60, 24 h, read-out: Energy Use by Undifferentiated HL-60 Cells
[4] = tested on: DMSO-differentiated HL-60 cells; experiment: Energy use by DMSO-differentiated HL-60 cells; type: cell-based, human; conditions: Homo sapiens, HL-60, 24 h, read-out: Energy Use by DMSO-Differentiated HL-60 Cells
Method: In this Example, methods for testing in vitro-differentiated cells for their ability to use multiple energy sources are described. Prior to differentiation, HL-60 cells were cultured as described in Example 27. DMSO-induced differentiation (Odani et al., Res. Commun. Mol. Pathol. Pharmacol. 108:381-391 [2000]; and Yamaguchi et al., Biol. Pharm. Bull. 20:943-947 [1997]) was accomplished by incubation of the cells in the presence of 1.25% DMSO for 3 days.
After washing, HL-60 cells were resuspended in DME-R. An aliquot of the cell suspension was counted by trypan blue exclusion and the cell density was adjusted to 6.67×10^5/mL. Fifty μL of DME-R were added to each well of the appropriate number of half area, 96-well plates, followed by 25 μL of the appropriate dilution of each test energy source. Stocks of 133 mM of each test chemical were prepared in tissue culture grade water, sterile filtered, and dilutions were prepared in a master plate so that, upon dilution into a half-area 96-well microtiter plate to a total well volume of 150 μL, the final concentrations would be 0.033 to 20 mM. Negative control wells received 25 μL of tissue culture grade water. The cells were plated at a volume of 75 μL/well, giving a final cell density of 5×10^4/well. For each plate containing energy sources and cells, a second, control plate containing only energy sources was prepared with the same total volume of liquid (148 μL/well). Plates were incubated at 5% CO2, 90-100% humidity, and 37° C. for 24 hours prior to addition of the MTS/MPMS calorimetric reagent (7.5 μL/well). The color formed in each well 24 hours after addition of the colorimetric reagent, was measured with a plate reader at 490 nm with a reference wavelength of 650 nm. OD values from the control plate were subtracted from the OD values obtained with cells prior to normalizing the data to % negative control (cells without added energy source).

[5] = Homo sapiens, HL-60, read-out: HL-60 Cell Responses to Selected Compounds from PM1 and PM2

`CCSCCC(N)C(=O)O` (racemic) [DL-ethionine] was tested, and the “suitability as sulfur source (growth, purple color)” value (“suitability as sulfur source” for short) (E. coli MG1655 [1]) was “not suitable”.
For `CSCCC(NC(C)=O)C(=O)O` (racemic) [N-acetyl-DL-methionine], the “suitability as sulfur source” value (E. coli MG1655 [1]) was “positive”.
`CSCCC(NC(=O)CN)C(=O)O` (racemic) [glycyl-DL-methionine] was tested, and the “suitability as sulfur source” value (E. coli MG1655 [1]) was “positive”.
With `CCCCCCCCCCCCS(=O)(=O)O` [1-dodecane-sulfonic acid] the “suitability as sulfur source” value (E. coli MG1655 [1]) was “not suitable”.
In the case of `NCCP(=O)(O)O` [2-aminoethyl phosphonate], the “suitability as phosphorus source (growth, purple color)” value (shortened to “suitability as phosphorus source”) (E. coli MG1655 [1]) is reported as “weak positive”.
In the case of `O=C(O)C(CO)OP(=O)(O)O` (stereo not shown) [2-phosphoglyceric acid], the “suitability as phosphorus source” value (E. coli MG1655 [1]) is reported as “positive”.
With `O=CC[C@@H](O)[C@H](O)[C@H](O)COP(=O)(O)O` [2′-deoxyglucose 6-phosphate] the “suitability as phosphorus source” value (E. coli MG1655 [1]) was “positive”.
With `O=C(O)[C@H](O)[C@@H](O)[C@H](O)[C@H](O)COP(=O)(O)O` [6-phosphogluconic acid] the “suitability as phosphorus source” value (E. coli MG1655 [1]) was “positive”.
For `N=C(N)NCCC[C@H](N)C(=O)O` [L-arginine], the “suitability as nitrogen source (growth, purple color)” value (E. coli MG1655 [2]) was “positive”, the response in words (HL-60 cells) was “strongly utilized, even at very low concentrations” and the activity at 30 µM (HL-60 cells; [5]) was 134%. The activity at 100 µM (HL-60 cells; [5]) was 138%, the activity at 330 µM (HL-60 cells; [5]) was 131% and the activity at 1000 µM (HL-60 cells; [5]) was 138%. It also gave an activity at 3300 µM (HL-60 cells; [5]) of 132%, an activity at 10000 µM (HL-60 cells; [5]) of 128% and an activity at 15000 µM (HL-60 cells; [5]) of 108%. The activity at 20000 µM (HL-60 cells; [5]) was 109%, the activity at 30 µM (HepG2 cells) was 127% and the activity at 100 µM (HepG2 cells) was 144%. For the same compound, the activity at 330 µM (HepG2 cells) was 165%, the activity at 1000 µM (HepG2 cells) was 142% and the activity at 3300 µM (HepG2 cells) was 154%. For the same compound, the activity at 10000 µM (HepG2 cells) was 119%, the activity at 15000 µM (HepG2 cells) was 90.8% and the activity at 20000 µM (HepG2 cells) was 60.3%. For the same compound, the activity at 30 µM [3] was 124%, the activity at 100 µM [3] was 118% and the activity at 330 µM [3] was 114%. The activity at 1000 µM [3] was 109%, the activity at 3300 µM [3] was 115% and the activity at 10000 µM [3] was 132%. It also gave an activity at 15000 µM [3] of 140%, an activity at 20000 µM [3] of 126% and an activity at 30 µM [4] of 106%. For the same compound, the activity at 100 µM [4] was 103%, the activity at 330 µM [4] was 122% and the activity at 1000 µM [4] was 126%. For the same compound, the activity at 3300 µM [4] was 123%, the activity at 10000 µM [4] was 132% and the activity at 15000 µM [4] was 119%. It also gave an activity at 20000 µM [4] of 93.4%.
With `N[C@@H](CS(=O)(=O)O)C(=O)O` [L-cysteic acid] the “suitability as sulfur source” value (E. coli MG1655 [1]) was “positive”.
With `N[C@@H](CS(=O)O)C(=O)O` [L-cysteine sulphinic acid] the “suitability as sulfur source” value (E. coli MG1655 [1]) was “positive”.
With `N[C@@H](CSCSC[C@H](N)C(=O)O)C(=O)O` [L-djenkolic acid] the “suitability as sulfur source” value (E. coli MG1655 [1]) was “positive”.
With `CS(=O)(=O)CC[C@H](N)C(=O)O` [L-methionine sulfone] the “suitability as sulfur source” value (E. coli MG1655 [1]) was “not suitable”.
With `C[S+]([O-])CC[C@H](N)C(=O)O` (stereo partly drawn) [L-methionine sulfoxide] the “suitability as sulfur source” value (E. coli MG1655 [1]) was “positive”.
With `CC(=O)N[C@@H](CS)C(=O)O` [N-acetyl cysteine] the “suitability as sulfur source” value (E. coli MG1655 [1]) was “not suitable”.
For `N[C@H](COP(=O)(O)O)C(=O)O` [O-phospho-D-serine], the “suitability as phosphorus source” value (E. coli MG1655 [1]) was “positive”.
`N[C@H](Cc1ccc(OP(=O)(O)O)cc1)C(=O)O` [O-phospho-D-tyrosine] was tested, and the “suitability as phosphorus source” value (E. coli MG1655 [1]) was “positive”.
`N[C@@H](COP(=O)(O)O)C(=O)O` [O-phospho-L-serine] was tested, and the “suitability as phosphorus source” value (E. coli MG1655 [1]) was “positive”.
With `C[C@@H](OP(=O)(O)O)[C@H](N)C(=O)O` [O-phospho-L-threonine] the “suitability as phosphorus source” value (E. coli MG1655 [1]) was “positive”.
With `N[C@@H](Cc1ccc(OP(=O)(O)O)cc1)C(=O)O` [O-phospho-L-tyrosine] the “suitability as phosphorus source” value (E. coli MG1655 [1]) was “positive”.
With `CSC[C@H](N)C(=O)O` [S-methyl-L-cysteine] the “suitability as sulfur source” value (E. coli MG1655 [1]) was “weak positive”.
For `Nc1ncnc2c1ncn2C1OC(CO)C2OP(=O)(O)OC21` (stereo not shown) [adenosine 2′:3′-cyclic monophosphate], the “suitability as phosphorus source” value (E. coli MG1655 [1]) was “not suitable”.
For `O=C[C@@H](O)[C@H](O)[C@H](O)COP(=O)(O)O` [arabinose 5-phosphate], the “suitability as phosphorus source” value (E. coli MG1655 [1]) was “positive”.
For `N[C@@H](CCSC[C@H](N)C(=O)O)C(=O)O` [cystathionine], the “suitability as sulfur source” value (E. coli MG1655 [1]) was “positive”.
`Nc1ccn([C@@H]2O[C@H](CO)C3OP(=O)(O)O[C@@H]32)c(=O)n1` (stereo partly shown) [cytidine 2′:3′-cyclic monophosphate] was tested, and the “suitability as phosphorus source” value (E. coli MG1655 [1]) was “positive”.
`Nc1ccn([C@@H]2O[C@@H]3COP(=O)(O)O[C@H]3[C@H]2O)c(=O)n1` [cytidine 3′:5′-cyclic monophosphate] was tested, and the “suitability as phosphorus source” value (E. coli MG1655 [1]) was “not suitable”.
In the case of `OP(O)(=S)S` [dithiophosphate], the “suitability as phosphorus source” value (E. coli MG1655 [1]) is reported as “positive” and the “suitability as sulfur source” value (E. coli MG1655 [1]) is reported as “positive”.
`O=C(COP(=O)(O)O)[C@@H](O)[C@H](O)[C@H](O)CO` [fructose 1-phosphate] was tested, and the “suitability as phosphorus source” value (E. coli MG1655 [1]) was “positive”.
With `N[C@H]1C(OP(=O)(O)O)O[C@H](CO)[C@@H](O)[C@@H]1O` (stereo partly shown) [glucosamine 1-phosphate] the “suitability as phosphorus source” value (E. coli MG1655 [1]) was “positive”.
For `N[C@H]1C(O)O[C@H](COP(=O)(O)O)[C@@H](O)[C@@H]1O` (stereo partly shown) [glucosamine 6-phosphate], the “suitability as phosphorus source” value (E. coli MG1655 [1]) was “positive”.
